We go through 15 molecules from PubChem BioAssay AID200 (DTP/NCI, 2004).

The subject of the assay is B6C3F1 mice, B16 melanoma ip, median survival T/C. The experiment in a line: NCI In Vivo Anticancer Drug Screen. Data for tumor model B16 Melanoma (intraperitoneal) in B6C3F1 mice. Conditions: endpoint: median survival time, schedule: Q01DX009 (ip), higher = longer survival. In short, it runs like this: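 Values are T/C ratios: the measurement in treated animals divided by that in vehicle-treated controls, using survival or tumor size in mice carrying transplantable tumors.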

Where [1] appears, read: dose: 5.0 mg/kg/injection, vehicle: Klucel (hydroxypropylcellulose) (HPC).
Setting [2] is: dose: 6.25 mg/kg/injection, vehicle: Klucel (hydroxypropylcellulose) (HPC).
[3] abbreviates: dose: 12.5 mg/kg/injection, vehicle: Klucel (hydroxypropylcellulose) (HPC).
Where [4] appears, read: dose: 25.0 mg/kg/injection, vehicle: Klucel (hydroxypropylcellulose) (HPC).
Where [5] appears, read: dose: 50.0 mg/kg/injection, vehicle: Klucel (hydroxypropylcellulose) (HPC).
[6] abbreviates: dose: 25.0 mg/kg/injection, vehicle: saline with Tween-80.
The mark [7] stands for this setting: dose: 50.0 mg/kg/injection, vehicle: saline with Tween-80.
[8] abbreviates: dose: 100.0 mg/kg/injection, vehicle: saline with Tween-80.
[9] abbreviates: dose: 100.0 mg/kg/injection, vehicle: saline.
Setting [10] is: dose: 200.0 mg/kg/injection, vehicle: saline.
The mark [11] stands for this setting: dose: 50.0 mg/kg/injection, vehicle: saline.

SMILES strings stand for the structures. “And” between values parts separate entries of the source, which are not always exact repeats. Equal entries are not always repeated. Toxic doses and inconclusive results are not listed.

As to `CC[PH+](CC)CC[S-].CC[PH+](CC)CC[S-].[Au+].[Au+]`, the T/C under setting [1] was 94 % of control; the T/C (dose: 10.0 mg/kg/injection, vehicle: Klucel (hydroxypropylcellulose) (HPC)) is 97 % of control; the T/C (dose: 20.0 mg/kg/injection, vehicle: Klucel (hydroxypropylcellulose) (HPC)) is 97 % of control; the T/C (dose: 40.0 mg/kg/injection, vehicle: Klucel (hydroxypropylcellulose) (HPC)) was 95 % of control.
As for `CC(=O)[O][Pb]([O]C(C)=O)([c]1ccccc1)[c]1ccccc1`, the T/C runs as follows: under setting [2], 88 % of control; under setting [3], 90 % of control; under setting [4], 88 % of control; under setting [5], 93 % of control.
In the case of `Nc1ccc(S(=O)(=O)c2ccc(N)cc2)cc1`, the T/C under setting [2] was 95 % of control; the T/C (dose: 6.25 mg/kg/injection, vehicle: saline with Tween-80) was 103 % of control; the T/C under setting [3] is 106 % of control; the T/C (dose: 12.5 mg/kg/injection, vehicle: saline with Tween-80) is 93 % of control; the T/C under setting [4] is 96 % of control; the T/C under setting [6] was 101 % of control. The T/C by setting is: under setting [5], 92 % of control; under setting [7], 93 % of control and 100 % of control; (dose: 100.0 mg/kg/injection, vehicle: Klucel (hydroxypropylcellulose) (HPC)) 90 % of control; under setting [8], 87 % of control and 98 % of control; (dose: 200.0 mg/kg/injection, vehicle: saline with Tween-80) 88 % of control; (dose: 400.0 mg/kg/injection, vehicle: saline with Tween-80) 86 % of control.
As to `COc1cc2cc(c1Cl)N(C)C(=O)CC(OC(=O)C(C)NC(=O)C(C)C)C1(C)OC1C(C)C1CC(O)(NC(=O)O1)C(OC)/C=C/C=C(C)C2OC` (centres undefined), the T/C was 102 % of control (dose: 4.0 micrograms/kg/injection, vehicle: distilled water + alcohol) and 114 % of control (dose: 8.0 micrograms/kg/injection, vehicle: distilled water + alcohol).
`COC1C(O)C(C)OC(OC2C(Oc3cccc4c(O)c5c(=O)oc6ccc(C)c7c(=O)oc(c34)c5c67)OC(C)C(O)C2O)C1O` (centres undefined): the T/C by setting is: under setting [6], 170 % of control; under setting [7], 168 % of control.
Consider `CCCNC1=C(C)C(=O)C2=C(C1=O)[C@H](COC(N)=O)[C@]1(OC)[C@@H]3N[C@@H]3CN21`, for which the T/C was 104 % of control (dose: 0.39 mg/kg/injection, vehicle: Klucel (hydroxypropylcellulose) (HPC)); 115 % of control (dose: 0.39 mg/kg/injection, vehicle: saline); 105 % of control (dose: 0.78 mg/kg/injection, vehicle: Klucel (hydroxypropylcellulose) (HPC)); 105 % of control (dose: 1.56 mg/kg/injection, vehicle: Klucel (hydroxypropylcellulose) (HPC)); 155 % of control (dose: 1.56 mg/kg/injection, vehicle: saline); 96 % of control (dose: 3.12 mg/kg/injection, vehicle: Klucel (hydroxypropylcellulose) (HPC)). Moreover, the T/C (dose: 3.12 mg/kg/injection, vehicle: saline) is 173 % of control and the T/C under setting [2] was 111 % of control.
With `CC(CNC(=O)CCOS(C)(=O)=O)NC(=O)CCOS(C)(=O)=O` (centres undefined), the T/C reads like this: under setting [9], 187 % of control; under setting [10], 177 % of control and 240 % of control.
As to `O=C(O)C1CC(O)CN1` (centres undefined), the T/C under setting [11] is 101 % of control; the T/C under setting [9] was 101 % of control; the T/C under setting [10] is 96 % of control; the T/C (dose: 400.0 mg/kg/injection, vehicle: saline) was 106 % of control; the T/C (dose: 800.0 mg/kg/injection, vehicle: saline) was 108 % of control.
Take `C=C1C(C)C2C(Cc3ccccc3)NC(=O)C23C(OC(C)=O)C=CC(C)(O)C(=O)C(C)C/C=C/C3C1O` (centres undefined): the T/C (dose: 0.31 mg/kg/injection, vehicle: Klucel (hydroxypropylcellulose) (HPC)) is 101 % of control; the T/C (dose: 0.63 mg/kg/injection, vehicle: Klucel (hydroxypropylcellulose) (HPC)) is 98 % of control; the T/C (dose: 1.25 mg/kg/injection, vehicle: Klucel (hydroxypropylcellulose) (HPC)) is 109 % of control; the T/C (dose: 2.5 mg/kg/injection, vehicle: Klucel (hydroxypropylcellulose) (HPC)) is 101 % of control; the T/C under setting [1] was 106 % of control.
For the molecule `O=C1C2CC(Cl)C(SSC3CC4C(=O)N(SC(Cl)(Cl)C(Cl)Cl)C(=O)C4CC3Cl)CC2C(=O)N1SC(Cl)(Cl)C(Cl)Cl` (centres undefined), the T/C is 98 % of control under setting [6], 104 % of control under setting [7] and 98 % of control under setting [8].
Regarding `CSC1SCC2C(=O)N(C)C(C(C)C)C(=O)OCC(NC(=O)c3cnc4ccccc4n3)C(=O)NC(C)C(=O)N(C)C1C(=O)N(C)C(C(C)C)C(=O)OCC(NC(=O)c1cnc3ccccc3n1)C(=O)NC(C)C(=O)N2C` (centres undefined), the T/C is 106 % of control (dose: 15.0 micrograms/kg/injection, vehicle: saline with Tween-80); 176 % of control (dose: 30.0 micrograms/kg/injection, vehicle: saline); 176 % of control (dose: 32.0 micrograms/kg/injection, vehicle: saline); 121 % of control (dose: 60.0 micrograms/kg/injection, vehicle: saline with Tween-80); 172 % of control (dose: 60.0 micrograms/kg/injection, vehicle: saline); 176 % of control (dose: 64.0 micrograms/kg/injection, vehicle: saline). For the same molecule, the T/C is, setting by setting: (dose: 120.0 micrograms/kg/injection, vehicle: saline) 209 % of control; (dose: 128.0 micrograms/kg/injection, vehicle: saline) 187 % of control; (dose: 240.0 micrograms/kg/injection, vehicle: saline) 181 % of control; (dose: 480.0 micrograms/kg/injection, vehicle: saline with Tween-80) 170 % of control.
Regarding `CC(=O)O[C@@H]1CO[C@H]2O[C@H]3[C@@H](C(C=O)=C[C@H](O)[C@@H]4C5=C(C(C)C)CC[C@]5(C)CC[C@@]34C)[C@@]2(O)C1=O`, the T/C (dose: 0.75 mg/kg/injection, vehicle: Klucel (hydroxypropylcellulose) (HPC)) was 89 % of control; the T/C (dose: 1.5 mg/kg/injection, vehicle: Klucel (hydroxypropylcellulose) (HPC)) was 94 % of control; the T/C (dose: 3.0 mg/kg/injection, vehicle: Klucel (hydroxypropylcellulose) (HPC)) is 88 % of control.
Turning to `COc1ccc2c(c1O)-c1cccc3c1[C@@H](C2)N(CCCl)CC3`, the T/C was 91 % of control and 100 % of control (dose: 1.0 mg/kg/injection, vehicle: Klucel (hydroxypropylcellulose) (HPC)); 100 % of control (dose: 2.0 mg/kg/injection, vehicle: Klucel (hydroxypropylcellulose) (HPC)); 97 % of control and 106 % of control (dose: 4.0 mg/kg/injection, vehicle: Klucel (hydroxypropylcellulose) (HPC)); 98 % of control and 102 % of control (dose: 8.0 mg/kg/injection, vehicle: Klucel (hydroxypropylcellulose) (HPC)).
Regarding `CCCCCCCCCCCCOP(N)(=O)OCCCCCCCCCCCC`, the T/C is, setting by setting: (dose: 25.0 mg/kg/injection, vehicle: saline) 100 % of control; under setting [11], 90 % of control; under setting [9], 89 % of control.
Consider `Cc1cn(C2CC(F)C(CO)O2)c(=O)[nH]c1=O` (centres undefined), for which the T/C runs as follows: (dose: 125.0 mg/kg/injection, vehicle: suspension in saline) 117 % of control; (dose: 250.0 mg/kg/injection, vehicle: suspension in saline) 116 % of control.
